Like-named read-outs stand apart in the source and are kept apart here.

Results on 10 compounds are retold here after patent US4962113A, “Pyridinium derivatives, their production and use” (Takeda Chemical Industries, Ltd, priority 1987, dated 1990).

Experiment [1] deals with platelet aggregation (PAF). Description: Inhibitory action on PAF-induced rabbit platelet aggregation. The settings on record: Oryctolagus cuniculus, read-out: inhibitory percentage (platelet aggregation); for inhibition at 3 µM: 3 × 10^-6 M; for inhibition at 0.3 µM: 3 × 10^-7 M; for inhibition at 0.03 µM: 3 × 10^-8 M. In kind it is cell-based. How it is done: Blood was collected directly from the hearts of male rabbits using a syringe containing, as an anticoagulant, 3.15% citric acid (one part to 9 parts of blood). The blood was subjected to centrifuge at 800 rpm for ten minutes at room temperature to obtain platelet rich plasma (PRP). The remaining blood was further subjected to centrifuge at 3000 rpm for ten minnutes to separate platelet poor plasma (PPP) as the supernatant. PRP was diluted with PPP, and the number of platelets was adjusted to about 500,000/ μl. This PRP(250 μl) was stirred for two minutes at 37° C., and there was added a test sample, and the mixture was stirred for further two minutes, followed by addition of PAF of a given concentration. Platelet aggregation was examined by means of a platelet-agglutometer (manufactured by Rika Denki). Platelet aggregation preventing action of the test sample was determined based on the maximum percent light transmission (maximum percent. agglutination).

Another experiment relates to PAF-induced hypotension. The experiment can be described thus: Inhibitory action on PAF-induced hypotension in rats. It counts as in vivo, rat (Sprague-Dawley). To be noted: Rattus norvegicus, read-out: Inhibitory Rate (Lowering of Blood Pressure); for inhibition in vivo at 0.03 mg/kg / inhibition in vivo at 0.01 mg/kg: iv; for inhibition in vivo at 1 mg/kg / inhibition in vivo at 3 mg/kg: oral. The protocol:
Sprague-Dawley male rats, each weighing about 250 g, were subjected to the experiment. The rats were cannulated on the side of femoral artery for measuring the blood pressure, and on the side of femoral vein for administering the drug. The blood pressure was measured through a pressure transducer and recorded. First, PAF (1 μg/kg) was administered intravenously (i.v.) to examine the extent of lowering of blood pressure. Then, the test samples were administered intravenously or orally. […]
The inhibitory action on PAF-induced hypotension (% inhibition) is indicated as the ratio of blood pressure-lowering degree (Δ mmHg) induced by PAF after administration of test samples relative to blood pressure-lowering degree (Δ mmHg) induced by PAF before administration of test samples.

`CCC[n+]1cc(Br)cc(C(=O)N(CCOC(=O)NCCOC(=O)Nc2cccc3ccccc23)c2cc(OC)c(OC)c(OC)c2)c1` [Production Example 27, 5-bromo-3-[N-[2-[2-(1-naphthylcarbamoyloxy)ethyl]carbamoyloxy]ethyl-N-(3,4,5-trimethoxyphenyl)]carbamoyl-1-propylpyridinium chloride]: in experiment [1], the inhibition at 3 µM turned out to be 100%, the inhibition at 0.3 µM amounted to 100% and the inhibition at 0.03 µM is 3%.
As for `CCC[n+]1cc(Br)cc(C(=O)N(CCOC(=O)NCCOC(=O)Nc2cccc3ccccc23)c2cccc(OC)c2)c1` [Production Example 94, 5-Bromo-3-[N-(3-methoxyphenyl)-N-[2-[2-(1-naphthylcarbamoyloxy)ethyl]carbamoyloxy]ethyl]carbamoyl-1-propylpyridinium chloride], the inhibition at 3 µM in experiment [1] was found to be 100%. Further, the inhibition at 0.3 µM in experiment [1] is 99%. In addition, in experiment [1], the inhibition at 0.03 µM was 10%. Further, the inhibition in vivo at 0.03 mg/kg with PAF-induced hypotension (1 hr.) was 94%; with PAF-induced hypotension (2 hr.), 86%; in the experiment on PAF-induced hypotension (4 hr.), 70%; in the experiment with PAF-induced hypotension (6 hr.), 63%; with PAF-induced hypotension (8 hr.), 52%; in the experiment on PAF-induced hypotension (5 min, i.v., 5 min.), 100%. The inhibition in vivo at 1 mg/kg in the experiment with PAF-induced hypotension (1 hr.) was determined as 27%; with PAF-induced hypotension (2 hr.) it was 34%; in the experiment on PAF-induced hypotension (4 hr.) it was 50%; in the experiment with PAF-induced hypotension (6 hr.) it was 50%; in the experiment with PAF-induced hypotension (8 hr.) it was 40%. The inhibition in vivo at 3 mg/kg in the experiment on PAF-induced hypotension (1 hr.) is 67%; in the experiment with PAF-induced hypotension (2 hr.), 89%; in the experiment with PAF-induced hypotension (4 hr.), 93%; in the experiment with PAF-induced hypotension (6 hr.), 97%; in the experiment with PAF-induced hypotension (8 hr.), 90%.
For `CCC[n+]1cc(Br)cc(C(=O)N(CCOC(=O)NCCOC(=O)N2CCc3ccccc3C2)c2ccccc2)c1` [Production Example 77, 5-Bromo-3-[N-[2-[[2-(1,2,3,4-tetrahydroisoquinolyl)carbonyloxy]ethyl]carbamoyloxy]ethyl-N-phenyl]carbamoyl-1-propylpyridinium chloride], in experiment [1], the inhibition at 3 µM was 100%. Also, the inhibition at 0.3 µM in experiment [1] is 100%. For the same compound, the inhibition at 0.03 µM in experiment [1] was determined as 51%. Moreover, the inhibition in vivo at 0.03 mg/kg in the experiment on PAF-induced hypotension (1 hr.) amounted to 100%; in the experiment with PAF-induced hypotension (2 hr.), 97%; with PAF-induced hypotension (4 hr.), 62%; in the experiment with PAF-induced hypotension (6 hr.), 46%; with PAF-induced hypotension (8 hr.) it was 33%; with PAF-induced hypotension (5 min, i.v., 5 min.) it was 100%. The inhibition in vivo at 1 mg/kg in the experiment on PAF-induced hypotension (1 hr.) is 56%; in the experiment on PAF-induced hypotension (2 hr.), 64%; with PAF-induced hypotension (4 hr.) it was 72%; in the experiment on PAF-induced hypotension (6 hr.), 66%; with PAF-induced hypotension (8 hr.), 59%. For the same compound, the inhibition in vivo at 3 mg/kg is 89% in the experiment on PAF-induced hypotension (1 hr.); 100% in the experiment on PAF-induced hypotension (2 hr.); 99% in the experiment with PAF-induced hypotension (4 hr.); 99% with PAF-induced hypotension (6 hr.); 97% in the experiment on PAF-induced hypotension (8 hr.).
As to `CCCCCCCCCCCCCCCCCCNC(=O)OCC(COC(=O)NCCN(C)C(=O)c1ccc[n+](CC)c1)OC` (centres unmarked) [Production Example 1, 3-[N-[2-(2-methoxy-3-octadecylcarbamoyloxypropoxycarbonyl)]aminoethyl-N-methyl]carbamoyl-1-ethylpyridinium iodide], in experiment [1], the inhibition at 3 µM was 100%, the inhibition at 0.3 µM stood at 100% and the inhibition at 0.03 µM was 9%.
In the case of `CCC[n+]1cc(Br)cc(C(=O)N(CCOC(=O)NCCOC(=O)Nc2cccc3ccccc23)c2cccc(Cl)c2)c1` [Production Example 44, 5-bromo-3-[N-(3-chlorophenyl)-N-[2-[2-(1-naphthylcarbamoyloxy)ethyl]carbamoyloxy]ethyl]carbamoyl-1-propylpyridinium chloride], in experiment [1], the inhibition at 3 µM amounted to 100%. Further, the inhibition at 0.3 µM in experiment [1] came out at 100%. The inhibition at 0.03 µM in experiment [1] worked out at 27%. For the same compound, the inhibition in vivo at 0.01 mg/kg with PAF-induced hypotension (1 hr.) was found to be 58%; with PAF-induced hypotension (2 hr.), 54%; in the experiment on PAF-induced hypotension (4 hr.) it was 47%; with PAF-induced hypotension (6 hr.), 41%; in the experiment with PAF-induced hypotension (5 min, i.v., 5 min.) it was 68%. The inhibition in vivo at 0.03 mg/kg is 81% with PAF-induced hypotension (1 hr.); 71% in the experiment with PAF-induced hypotension (2 hr.); 64% in the experiment with PAF-induced hypotension (4 hr.); 59% in the experiment with PAF-induced hypotension (6 hr.); 39% in the experiment on PAF-induced hypotension (8 hr.); 97% in the experiment on PAF-induced hypotension (5 min, i.v., 5 min.). The inhibition in vivo at 1 mg/kg in the experiment on PAF-induced hypotension (1 hr.) was found to be 62%; in the experiment with PAF-induced hypotension (2 hr.) it was 74%; with PAF-induced hypotension (4 hr.), 73%; in the experiment on PAF-induced hypotension (6 hr.), 68%; in the experiment on PAF-induced hypotension (8 hr.) it was 61%. Moreover, the inhibition in vivo at 3 mg/kg in the experiment with PAF-induced hypotension (1 hr.) is 77%; with PAF-induced hypotension (2 hr.) it was 84%; in the experiment with PAF-induced hypotension (4 hr.), 97%; in the experiment on PAF-induced hypotension (6 hr.), 94%; in the experiment on PAF-induced hypotension (8 hr.), 92%.
For the compound `CCC[n+]1cc(Br)cc(C(=O)N(CCOC(=O)NCCOC(=O)Nc2cccc3ccccc23)c2ccc(Cl)cc2)c1` [Production Example 22, 5-bromo-3-[N-(4-chlorophenyl)-N-[2-[2-(1-naphthylcarbamoyloxy)ethyl]carbamoyloxy]ethyl]carbamoyl-1-propylpyridinium chloride], in experiment [1], the inhibition at 3 µM amounted to 100%, the inhibition at 0.3 µM was determined as 100% and the inhibition at 0.03 µM came to 11%.
Consider `CCN(CCOC(=O)NCCOc1cccc2ccccc12)C(=O)c1cc(Br)c[n+](CC)c1` [Production Example 15, 5-bromo-1-ethyl-3-[N-ethyl-N-[2-[2-(1-naphthyloxy)ethyl]carbamoyloxy]ethyl]carbamoylpyridinium iodide], for which, in experiment [1], the inhibition at 3 µM was 100%, the inhibition at 0.3 µM worked out at 100% and the inhibition at 0.03 µM is 22%.
`CCC[n+]1cc(Br)cc(C(=O)N(CCOC(=O)NCCOC(=O)Nc2cccc3ccccc23)c2ccc(I)cc2)c1` [Production Example 25, 5-bromo-3-[N-(4-iodophenyl)-N-[2-[2-(1-naphthylcarbamoyloxy)ethyl]carbamoyloxy]ethyl]carbamoyl-1-propylpyridinium chloride]: in experiment [1], the inhibition at 3 µM is 100%, the inhibition at 0.3 µM worked out at 100% and the inhibition at 0.03 µM was found to be 18%.
As to `CC[n+]1cc(Br)cc(C(=O)N(CCOC(=O)NCCOc2cccc3ccccc23)c2ccccc2)c1` [Production Example 6, 5-bromo-3-[N-[2-[2-(1-naphthyloxy)ethyl]carbamoyloxy]ethyl-N-phenyl]carbamoyl-1-ethylpyridinium iodide], in experiment [1], the inhibition at 3 µM amounted to 100%, the inhibition at 0.3 µM was determined as 100% and the inhibition at 0.03 µM came out at 34%.
With `CCCCN(CCOC(=O)NCCOc1cccc2ccccc12)C(=O)c1cc(Br)c[n+](CC)c1` [Production Example 19, 5-bromo-1-ethyl-3-[N-butyl-N-[2-[2-(1-naphthyloxy)ethyl]carbamoyloxy]ethyl]carbamoylpyridinium iodide], in experiment [1], the inhibition at 3 µM was 100%, the inhibition at 0.3 µM is 100% and the inhibition at 0.03 µM was 42%.
